Results on 79 compounds are retold here after PubChem BioAssay AID720512 (Broad Institute, 2013).

Usually AC50 stands for the concentration at which the activity in the assay is half-maximal.

Active and inactive are the calls of the source. No rule for the calls is given here.

The first test deals with Toxin B (TcdB) glycohydrolase, Clostridioides difficile 630. The test is described as follows: TcdB glycohydrolase inhibitors, dose response, biochemical, cherry-pick, plate reader (AID 720512). Conditions: recombinant TcdB glycohydrolase activity.
Turning to `CCOC(=O)/C(=N/Nc1ccc(Br)cc1)N1CC(C)OC(C)C1` (centres undefined), the AC50 is 6.61 µM.

Still in this test, the particulars now being: recombinant TcdB glycohydrolase activity, at 10 µM (top of the series).
`O=C1c2c(O)ccc(O)c2C(=O)c2c(NCCNCCO)ccc(NCCNCCO)c21`: the “activity change, negative = inhibition” value is “inactive”.

The test is the same for the next values; noted with them: recombinant TcdB glycohydrolase activity, at 19.5 µM (top of the series).
Consider `CCOC(=O)[C@H]1[C@H]2COc3ccc(OC)cc3[C@@H]2N2C(=O)CN(Cc3ccc(Cl)cc3)C(=O)[C@@]12C`, for which the “activity change, negative = inhibition” value was “inactive”.

For the compound `COc1ccc(S(=O)(=O)N2CCC[C@H]2C(=O)N2CCC[C@H]2C(=O)NCc2ccncc2)cc1C`, the “activity change, negative = inhibition” value is “inactive”.

For the compound `CCOC(=O)N1CCC(c2cc(=O)n3[nH]c(-c4ccccc4)cc3n2)CC1`, the “activity change, negative = inhibition” value was “inactive”.

With `COc1ccccc1-c1cn[nH]c1-c1ccc(O)cc1O`, the “activity change, negative = inhibition” value was “inactive”.

`O=C(C[C@@H]1CC[C@H]2[C@@H](COC[C@@H](O)CN2C(=O)c2ccccn2)O1)NC1CCC1`: the “activity change, negative = inhibition” value is “inactive”.

As to `CCOCCCNC(=O)C1CCN(S(=O)(=O)c2c(C)noc2/C=C\c2ccc(OC)cc2)CC1`, the “activity change, negative = inhibition” value was “inactive”.

For the compound `CC(C)NC(=O)N1CC[C@@H]2[C@H]1c1cc(-c3ccc(F)cc3)ccc1N(C)[C@H]2CO`, the “activity change, negative = inhibition” value was “inactive”.

Take `CN(C)c1ccc(C(=O)OCC#CCSc2nnc(-c3cccc4ccccc34)o2)cc1`: the “activity change, negative = inhibition” value was “inactive”.

`Cc1cccc(/C=C/c2onc(C)c2S(=O)(=O)N2CCC(C(=O)N3CCCCC3)CC2)c1`: the “activity change, negative = inhibition” value is “inactive”.

For `O=C(CCn1cnc2ccccc21)N/N=C/c1ccc(O)cc1`, the “activity change, negative = inhibition” value was “inactive”.

For the compound `CC(C)Cc1[nH]c(=O)c(C#N)c2c1CCCC2`, the “activity change, negative = inhibition” value is “inactive”.

Turning to `Cc1cc(C)c(NS(=O)(=O)c2cccc3cccnc23)c(C)c1`, the “activity change, negative = inhibition” value was “inactive”.

For the compound `CC(=O)C[C@H]1c2ccccc2S(=O)(=O)N1C1CCCCC1`, the “activity change, negative = inhibition” value is “inactive”.

Turning to `O=C(O)c1ccccc1NC(=O)N1C[C@H]2C[C@@H](C1)c1cccc(=O)n1C2`, the “activity change, negative = inhibition” value is “inactive”.

Turning to `Cc1ccc(S(=O)(=O)N2CCC(C(=O)OCC(=O)NCCc3ccccc3)CC2)cc1C`, the “activity change, negative = inhibition” value was “inactive”.

Turning to `CCN(C(=O)CN1C(=O)NC2(CCC(C)CC2)C1=O)C1CCCCC1` (centres undefined), the “activity change, negative = inhibition” value was “inactive”.

As for `CC(Oc1ccc(Cl)cc1Cl)C(=O)Nc1ccc(O)cc1` (centres undefined), the “activity change, negative = inhibition” value is “inactive”.

For `Cc1ccc(NCCN(C)C)c2c(=O)c3cc(O)ccc3sc12`, the “activity change, negative = inhibition” value was “inactive”.

For the compound `CCn1cc(C(=O)O)c(=O)c2cc(F)c(N3CCN(C(=S)NC(=O)c4ccccc4Br)CC3)cc21`, the “activity change, negative = inhibition” value is “inactive”.

On to `c1ccc(SCc2nc3ccccc3s2)nc1`, for which the “activity change, negative = inhibition” value is “inactive”.

On to `Cc1ccn(CCC(=O)NC2CC(C)(C)Cc3c2cnn3-c2ccccc2C)n1` (centres undefined), for which the “activity change, negative = inhibition” value is “inactive”.

Regarding `CCOc1ccccc1/C=C/c1onc(C)c1S(=O)(=O)N1CCC(C(=O)N(CC)CC)CC1`, the “activity change, negative = inhibition” value was “inactive”.

With `CCC(C)NC(=O)CSc1nc2cc(S(=O)(=O)N3CCOCC3)ccc2n1CC` (centres undefined), the “activity change, negative = inhibition” value was “inactive”.

In the case of `O=C(NCc1cc(C(F)(F)F)cc(C(F)(F)F)c1)C1CC(c2c(Cl)cccc2Cl)=NO1` (centres undefined), the “activity change, negative = inhibition” value is “inactive”.

Take `O=C(C[n+]1ccccc1)N/N=C/c1ccc(O)cc1`: the “activity change, negative = inhibition” value was “inactive”.

In the case of `CCOC(=O)c1cc([N+](=O)[O-])sc1N`, the “activity change, negative = inhibition” value is “inactive”.

For `O=C(Nc1ccc(O)cc1)C1CCCN1S(=O)(=O)c1ccc(F)cc1` (centres undefined), the “activity change, negative = inhibition” value is “inactive”.

For `O=C1Cc2cc(S(=O)(=O)NCc3ccccc3Cl)cc3c2N1CCC3`, the “activity change, negative = inhibition” value was “inactive”.

As to `CCCNC(=O)C1CCN(S(=O)(=O)c2c(C)noc2/C=C\c2ccc(OC)cc2)CC1`, the “activity change, negative = inhibition” value was “inactive”.

As for `N/C(=N\N=C\c1ccc(O)cc1)c1nonc1N`, the “activity change, negative = inhibition” value is “inactive”.

`COc1cccc2sc(NNC(=O)C3COc4ccccc4O3)nc12` (centres undefined): the “activity change, negative = inhibition” value is “inactive”.

In the case of `Cc1[nH]ccc2c1[nH]c1cc(=O)ccc12`, the “activity change, negative = inhibition” value was “inactive”.

Regarding `O=C(Nc1ccc(N2CCOCC2)c(Cl)c1)c1ccc2c(c1)OCCO2`, the “activity change, negative = inhibition” value is “inactive”.

For the compound `CCNC(=O)C[C@@H]1CC[C@H]2[C@H](COc3ccc(NC(C)=O)cc3C(=O)N2C)O1`, the “activity change, negative = inhibition” value was “inactive”.

As to `Cc1ccc(/C=C(\C#N)C(=O)Nc2ccccn2)o1`, the “activity change, negative = inhibition” value is “inactive”.

Turning to `COc1ccccc1-n1c(SCC(=O)O)nc2c(sc(=S)n2-c2ccc(C)c(C)c2)c1=O`, the “activity change, negative = inhibition” value was “inactive”.

For the compound `COCC#Cc1ccc2c(c1)O[C@@H](CN(C)C(=O)CC1CC1)[C@H](C)CN([C@@H](C)CO)S2(=O)=O`, the “activity change, negative = inhibition” value was “inactive”.

With `O=C1Nc2ccccc2C1c1ncc(C(F)(F)F)cc1Cl` (centres undefined), the “activity change, negative = inhibition” value was “inactive”.

Turning to `CC(C)CNC(=O)C(=O)NCC1CCCN1S(=O)(=O)c1cccs1` (centres undefined), the “activity change, negative = inhibition” value is “inactive”.

Consider `CC(C(=O)OCC(=O)c1c(N)n(C)c(=O)n(C)c1=O)N1C(=O)c2ccccc2C1=O` (centres undefined), for which the “activity change, negative = inhibition” value is “inactive”.

As to `C/C(CCc1ccccc1)=N\NC(=O)C1C2CCCCC21` (centres undefined), the “activity change, negative = inhibition” value is “inactive”.

With `O=c1c2ccccc2nc(/C=C/c2ccc(O)cc2)n1-c1ccccc1O`, the “activity change, negative = inhibition” value is “inactive”.

On to `CC12CCC3C(=CCc4cc(O)ccc43)C1CC(=NO)C2O` (centres undefined), for which the “activity change, negative = inhibition” value was “inactive”.

For `COc1ccc(-c2ccc3c(c2)[C@H]2[C@H](CCN2C(=O)Cc2cccnc2)[C@@H](CO)N3C)cc1`, the “activity change, negative = inhibition” value is “inactive”.

Regarding `O=C(CSc1ccccc1)Nc1cc(S(=O)(=O)N2CCOCC2)ccc1N1CCOCC1`, the “activity change, negative = inhibition” value is “inactive”.

Regarding `CC(=O)Nc1ccccc1O`, the “activity change, negative = inhibition” value is “inactive”.

`Cc1ccc(C(=O)Nc2ccc(N3CCCCC3)cc2)cc1`: the “activity change, negative = inhibition” value was “inactive”.

Consider `OCC1CCCN(C(=S)Nc2ccc(Nc3ccccc3)cc2)C1` (centres undefined), for which the “activity change, negative = inhibition” value is “inactive”.

With `COc1cccc(C(CNc2ccc(S(=O)(=O)N3CCN(C)CC3)cc2[N+](=O)[O-])N(C)C)c1` (centres undefined), the “activity change, negative = inhibition” value was “inactive”.

`CCCSc1nc2c([nH]1)c(=O)n(C)c(=S)n2C`: the “activity change, negative = inhibition” value is “inactive”.

Take `CC(C)=CCOc1c2occc2cc2ccc(=O)oc12`: the “activity change, negative = inhibition” value was “inactive”.

As to `C[C@@H]1CN([C@H](C)CO)S(=O)(=O)c2ccc(-c3ccncc3)cc2O[C@@H]1CN(C)Cc1ccc(Oc2ccccc2)cc1`, the “activity change, negative = inhibition” value is “inactive”.

For `Cc1c(C(=O)c2ccccc2)c2ccccn2c1CCc1ccccn1`, the “activity change, negative = inhibition” value was “inactive”.

With `O=C(Nc1cc(S(=O)(=O)N2CCOCC2)ccc1N1CCOCC1)c1ccccc1Cl`, the “activity change, negative = inhibition” value was “inactive”.

In the case of `CC(=O)N1CCN(c2ccc(S(C)(=O)=O)cc2[N+](=O)[O-])CC1`, the “activity change, negative = inhibition” value was “inactive”.

Take `COc1ccccc1C=C1SC(=S)NC1=O`: the “activity change, negative = inhibition” value is “inactive”.

Turning to `Cc1ccc(S(=O)(=O)/N=C(/Nc2cccc(O)c2)c2ccccc2)cc1`, the “activity change, negative = inhibition” value was “inactive”.

In the case of `CCOC(=O)c1sc(=S)[nH]c1C`, the “activity change, negative = inhibition” value was “inactive”.

With `O=C(NNc1nc2c(F)cc(F)cc2s1)C1COc2ccccc2O1` (centres undefined), the “activity change, negative = inhibition” value is “inactive”.

Turning to `Cc1ccc(S(=O)(=O)Oc2ccc(/C=N/NC(=O)c3nn(C)cc3[N+](=O)[O-])cc2)cc1`, the “activity change, negative = inhibition” value is “inactive”.

For the compound `COc1cc2oc3ccc(C#Cc4ccccn4)cc3c(=O)c2cc1OC`, the “activity change, negative = inhibition” value is “inactive”.

As for `Oc1ccc(-c2nccs2)cc1`, the “activity change, negative = inhibition” value was “inactive”.

For `COc1ccc(C)cc1NC(=O)C(OC(=O)C1=NNC(=O)CC1)c1ccccc1` (centres undefined), the “activity change, negative = inhibition” value was “inactive”.

As for `COc1ccc(-c2cnc3c(c2)C(=O)N([C@@H](C)CO)C[C@H](C)[C@H](CN(C)C(=O)C2CCCCC2)O3)cc1`, the “activity change, negative = inhibition” value is “inactive”.

For `Cc1onc(-c2ccccc2Cl)c1C(=O)Nc1cnn(Cc2ccccc2)c1`, the “activity change, negative = inhibition” value was “inactive”.

Take `O=C(O)c1ccc2c(c1)N(Cc1cccc(F)c1)C(=O)CS2`: the “activity change, negative = inhibition” value is “inactive”.

For `O=[N+]([O-])c1ccc(S(=O)(=O)Nc2nc(-c3ccccc3)cs2)cc1`, the “activity change, negative = inhibition” value is “inactive”.

As for `Cc1nc(-c2ccccn2)nc(SCC(=O)c2ccc(F)cc2)c1Cl`, the “activity change, negative = inhibition” value is “inactive”.

Take `CC(=O)N(c1ccccc1C)S(=O)(=O)c1ccc(Cl)cc1`: the “activity change, negative = inhibition” value was “inactive”.

On to `CC1(C)CCC/C(=C\c2ccccc2)C1=O`, for which the “activity change, negative = inhibition” value was “inactive”.

As for `CN1CCN(/N=C/c2c[nH]c3ccccc23)CC1`, the “activity change, negative = inhibition” value was “inactive”.

Consider `CCC(=O)Nc1ccc2c(c1)OC[C@@H](C)N(C(=O)NC(C)C)C[C@@H](C)[C@@H](OC)CN(C)C2=O`, for which the “activity change, negative = inhibition” value is “inactive”.

As for `COc1ccc(C(=O)NC(CC(=O)O)c2cc([N+](=O)[O-])ccc2Cl)c(SC)c1` (centres undefined), the “activity change, negative = inhibition” value is “inactive”.

As for `CCCNC(=O)N1CC[C@@H]2[C@H]1c1cc(-c3ccccc3)ccc1N(C)[C@H]2CO`, the “activity change, negative = inhibition” value was “inactive”.

On to `Cc1ccccc1COc1ccc2oc(C)c(C(=O)O)c2c1`, for which the “activity change, negative = inhibition” value was “inactive”.

Staying with this test, now noted: recombinant TcdB glycohydrolase activity, at 21 µM (top of the series).
For the compound `C[C@@H]1CN([C@@H](C)CO)C(=O)c2c(c3ccccc3n2C)-c2ccccc2CO[C@@H]1CN(C)C`, the “activity change, negative = inhibition” value was “inactive”.

With `CN1C(=O)c2cc(NC(=O)Nc3ccccc3Cl)ccc2OC[C@H]2O[C@@H](CC(=O)NCCCN3CCOCC3)CC[C@H]21`, the “activity change, negative = inhibition” value is “inactive”.
